Source: article PMC3763632, “Radiosynthesis and Radiotracer Properties of a 7-(2-[^18F]Fluoroethoxy)-6-methoxypyrrolidinylquinazoline for Imaging of Phosphodiesterase 10A with PET” (Pharmaceuticals, 2012)
“Also recorded” adds a separate entry of the source.

What was measured:
[1] = log D7.2-7.4 by shake-flask method; assay type: physicochemical; settings: overall value from HPLC and shake-flask determinations; read-out: experimental log D7.0–7.4
Experimental: To clarify these findings, we determined the ligand distribution coefficients for [^18/19F]IV experimentally, under physiological pH conditions in solid-liquid phase systems via retention on RP-HPLC, and in liquid-liquid phase systems by conventional shake-flask method. […] All in one, an experimental log D7.0–7.4 value of ~2.7 promised a good potential for brain uptake of [^18F]IV in vivo, attended by low unspecific binding.
Log D7.2–7.4 values of [^18F]IV were determined using a conventional shake-flask method (multiple distribution in triplicates). Measurements of distribution coefficients were performed in 3 series at 21 °C between n-octanol and three aqueous buffer solutions, physiological phosphate-saline (0.1 M Na3PO4, 0.15 M NaCl, pH 7.2), phosphate buffer (KH2PO4/Na2HPO4•2H2O, 50 mM, pH 7.2) or TRIS-HCl buffer (50 mM, pH 7.4 at 21 °C). Solutions of [^18F]IV (2–5 MBq) in MeCN, MeOH (100 μL) or in 5% ethanol/0.9% NaCl (10 μL) were added to a 15 mL polypropylene tube (n = 3 per buffer system) containing a two-layer system of a selected aqueous solution (3 mL) and n-octanol (3 mL). […] Radioactivity of these samples was quantified using a calibrated γ-counter (Wallac WIZARD, Perkin Elmer, Waltham, MA, USA). […] Distribution coefficients and log D7.2–7.4 values of [^18F]IV were calculated with Microcal^TM Origin (6.0, Microcal Software, Inc., Northhampton, MA, USA).

[2] = tested on: PDE10A; assay: Ex vivo autoradiography of mouse brain; assay type: in vivo, CD-1 mice; settings: 30 min p.i. of 100 MBq
Experimental: To determine the regional distribution of [^18F]IV in the brain in vivo, we also performed ex vivo autoradiography. In CD-1 mice brain, heterogeneous distribution of radioactivity was noticed at 30 min after [^18F]IV injection (Figure 5), but the localization of radioligand did neither correlate with the spatial distribution of PDE10A in the brain known from immunohistochemical and in vivo PET studies nor with the pattern of [^18F]IV binding in the brain in vitro (Figure 3A). […] The discrepancy in the pattern of [^18F]IV distribution between in vitro and ex vivo autoradiography most probably indicates off-target binding of the radiotracer in combination with to low target affinity. While the dissociation rate underlying low affinity towards PDE10A allows a detection in the closed system of an in vitro study, the dynamic processes in vivo make binding of [^18F]IV towards PDE10A non-detectable. […]
Ex vivo autoradiography on the distribution of [^18F]IV in mouse brain (n = 1) was performed on sagittal brain sections obtained at 30 min after i.v. injection of 100 MBq of [^18F]IV. […] After exposition to ^18F-sensitive storage phosphor screens for 60 min, image plates were analyzed using a bioimaging analyzer system (see above).

[3] = Chemical stability in vitro; assay type: physicochemical; settings: for native [18F]IV remaining intact: up to 1.5 h
Experimental: Furthermore, the chemical stability of [^18F]IV in vitro under physiological conditions was investigated. […] For formulation and storage, radioligand stability in acetonitrile (98%, 1 h, 80 °C) and in ethanol (98%, 1 h, 80 °C; ≥99%, 1.5 h, 40 °C) was proven.

With COc1cc2c(N3CC[C@@H](Oc4cnc5ccccc5n4)C3)ncnc2cc1OCC[18F] [[^18F]IV, (R)-7-(2-[^18F]Fluoroethoxy)-6-methoxy-4-(3-(quinoxalin-2-yloxy)pyrrolidin-1-yl)quinazoline] the logD [1] was about 2.7, the “accumulation in PDE10A-expressing brain regions (caudate putamen, olfactory tubercle, cerebellum)” value [2] was “no target specific accumulation; also recorded: free of significant accumulation” and the “native [18F]IV remaining intact” value ([3]; 0.01 M TRIS-HCl buffer (pH 7.4 at 21 °C), 40 °C) was at least 99%. For the same compound, the “native [18F]IV remaining intact” value ([3]; 0.9% sodium chloride solution (pH 7.2), 40 °C, radio-TLC) was at least 99%, the radioligand stability ([3]; acetonitrile, 1 h, 80 °C) was 98% and the radioligand stability ([3]; ethanol, 1 h, 80 °C) was 98%. The radioligand stability ([3]; ethanol, 1.5 h, 40 °C) was at least 99% and the “native [18F]IV remaining intact” value ([3]; physiological phosphate-saline (pH 7.2), 40 °C) was 97%.
